These are literature values, as cited in patent US12369587B2, “Aqueous composition of epyrifenacil, flumioxazin and pyroxasulfone” (Valent U.S.A. LLC, priority 2020, dated 2025).

Regarding `C#CCN1C(=O)COc2cc(F)c(N3C(=O)C4=C(CCCC4)C3=O)cc21` [flumioxazin, 2-(7-fluoro-3-oxo-4-prop-2-ynyl-1,4-benzoxazin-6-yl)-4,5,6,7-tetrahydroisoindole-1,3-dione], the water solubility is 1.79 ppm.
